Values quoted from earlier work, collected in patent EP4599698A1, “PRODUCTS COMPRISING SENSORY AGENTS” (Nicoventures Trading Limited, priority 2024, dated 2025).

Assays:
[1] = biological target: transient receptor potential vanilloid 1/TRPV1 (Homo sapiens, UniProt Q8NER1)
TRP ankyrin 1/TRPA1 = TRP ankyrin 1/TRPA1 (Homo sapiens, UniProt O75762)
[2] = when isolated; converts via isomerization into trans-bixin (β-bixin)
TRP melastatin 8/TRPM8 = TRP melastatin 8/TRPM8 (Homo sapiens, UniProt Q7Z2W7)
Sequence of TRP melastatin 8/TRPM8 (Q7Z2W7 whole entry): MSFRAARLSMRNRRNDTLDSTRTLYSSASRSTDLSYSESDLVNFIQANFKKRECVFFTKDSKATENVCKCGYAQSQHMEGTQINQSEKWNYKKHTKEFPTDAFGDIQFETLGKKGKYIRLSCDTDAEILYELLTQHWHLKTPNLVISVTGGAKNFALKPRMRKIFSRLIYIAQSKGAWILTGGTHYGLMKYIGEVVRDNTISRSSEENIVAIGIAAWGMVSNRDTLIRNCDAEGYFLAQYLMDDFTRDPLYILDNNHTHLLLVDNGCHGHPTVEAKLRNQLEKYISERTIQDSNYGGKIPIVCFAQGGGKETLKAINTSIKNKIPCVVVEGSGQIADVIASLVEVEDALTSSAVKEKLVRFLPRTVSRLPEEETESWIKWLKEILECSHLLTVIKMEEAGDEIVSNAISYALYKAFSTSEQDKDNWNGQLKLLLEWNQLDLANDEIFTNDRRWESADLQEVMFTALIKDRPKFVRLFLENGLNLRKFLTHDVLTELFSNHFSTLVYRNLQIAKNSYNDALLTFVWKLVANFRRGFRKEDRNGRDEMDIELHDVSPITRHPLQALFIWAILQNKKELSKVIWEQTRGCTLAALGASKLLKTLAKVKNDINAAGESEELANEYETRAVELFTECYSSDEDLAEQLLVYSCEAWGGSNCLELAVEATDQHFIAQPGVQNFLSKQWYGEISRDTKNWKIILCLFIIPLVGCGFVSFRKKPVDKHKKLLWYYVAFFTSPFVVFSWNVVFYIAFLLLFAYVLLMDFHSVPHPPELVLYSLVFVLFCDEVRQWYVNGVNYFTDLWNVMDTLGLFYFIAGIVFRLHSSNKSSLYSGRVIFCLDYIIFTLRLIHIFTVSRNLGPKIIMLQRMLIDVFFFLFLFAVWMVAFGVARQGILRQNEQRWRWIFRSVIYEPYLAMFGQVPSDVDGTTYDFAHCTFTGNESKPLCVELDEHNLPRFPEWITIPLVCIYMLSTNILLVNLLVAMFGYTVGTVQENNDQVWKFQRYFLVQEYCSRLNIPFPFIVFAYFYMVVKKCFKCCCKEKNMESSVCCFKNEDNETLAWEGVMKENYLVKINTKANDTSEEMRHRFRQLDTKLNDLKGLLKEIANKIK

Sequence of TRP ankyrin 1/TRPA1 (O75762 whole entry): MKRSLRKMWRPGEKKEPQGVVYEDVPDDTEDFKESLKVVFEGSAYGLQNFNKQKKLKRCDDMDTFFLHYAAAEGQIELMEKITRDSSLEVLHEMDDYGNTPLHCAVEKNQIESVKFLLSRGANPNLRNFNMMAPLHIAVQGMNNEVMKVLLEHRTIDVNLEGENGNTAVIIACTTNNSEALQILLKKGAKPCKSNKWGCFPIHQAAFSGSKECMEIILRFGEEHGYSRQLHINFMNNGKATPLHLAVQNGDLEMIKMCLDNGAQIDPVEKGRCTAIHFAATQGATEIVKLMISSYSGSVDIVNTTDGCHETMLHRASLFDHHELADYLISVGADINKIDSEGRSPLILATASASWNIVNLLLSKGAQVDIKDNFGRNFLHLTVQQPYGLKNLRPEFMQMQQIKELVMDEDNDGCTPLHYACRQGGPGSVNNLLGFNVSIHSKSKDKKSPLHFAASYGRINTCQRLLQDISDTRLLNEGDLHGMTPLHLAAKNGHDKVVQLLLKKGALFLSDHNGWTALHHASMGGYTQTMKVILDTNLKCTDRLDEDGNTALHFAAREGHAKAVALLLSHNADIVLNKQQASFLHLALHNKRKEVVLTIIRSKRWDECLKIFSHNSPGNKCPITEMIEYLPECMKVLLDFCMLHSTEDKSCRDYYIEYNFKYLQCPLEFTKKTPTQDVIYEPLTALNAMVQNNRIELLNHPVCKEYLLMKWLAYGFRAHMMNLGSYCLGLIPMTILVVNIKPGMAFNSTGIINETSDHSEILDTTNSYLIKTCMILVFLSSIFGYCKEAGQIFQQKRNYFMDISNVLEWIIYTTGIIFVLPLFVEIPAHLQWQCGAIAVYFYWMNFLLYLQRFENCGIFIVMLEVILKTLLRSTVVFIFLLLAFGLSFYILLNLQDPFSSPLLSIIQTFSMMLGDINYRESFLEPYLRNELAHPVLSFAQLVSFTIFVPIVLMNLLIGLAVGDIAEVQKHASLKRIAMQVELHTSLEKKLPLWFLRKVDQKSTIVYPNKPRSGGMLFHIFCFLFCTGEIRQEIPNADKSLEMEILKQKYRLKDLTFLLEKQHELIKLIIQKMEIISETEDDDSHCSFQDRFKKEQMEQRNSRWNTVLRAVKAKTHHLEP
Sequence of transient receptor potential vanilloid 1/TRPV1 (Q8NER1 whole entry): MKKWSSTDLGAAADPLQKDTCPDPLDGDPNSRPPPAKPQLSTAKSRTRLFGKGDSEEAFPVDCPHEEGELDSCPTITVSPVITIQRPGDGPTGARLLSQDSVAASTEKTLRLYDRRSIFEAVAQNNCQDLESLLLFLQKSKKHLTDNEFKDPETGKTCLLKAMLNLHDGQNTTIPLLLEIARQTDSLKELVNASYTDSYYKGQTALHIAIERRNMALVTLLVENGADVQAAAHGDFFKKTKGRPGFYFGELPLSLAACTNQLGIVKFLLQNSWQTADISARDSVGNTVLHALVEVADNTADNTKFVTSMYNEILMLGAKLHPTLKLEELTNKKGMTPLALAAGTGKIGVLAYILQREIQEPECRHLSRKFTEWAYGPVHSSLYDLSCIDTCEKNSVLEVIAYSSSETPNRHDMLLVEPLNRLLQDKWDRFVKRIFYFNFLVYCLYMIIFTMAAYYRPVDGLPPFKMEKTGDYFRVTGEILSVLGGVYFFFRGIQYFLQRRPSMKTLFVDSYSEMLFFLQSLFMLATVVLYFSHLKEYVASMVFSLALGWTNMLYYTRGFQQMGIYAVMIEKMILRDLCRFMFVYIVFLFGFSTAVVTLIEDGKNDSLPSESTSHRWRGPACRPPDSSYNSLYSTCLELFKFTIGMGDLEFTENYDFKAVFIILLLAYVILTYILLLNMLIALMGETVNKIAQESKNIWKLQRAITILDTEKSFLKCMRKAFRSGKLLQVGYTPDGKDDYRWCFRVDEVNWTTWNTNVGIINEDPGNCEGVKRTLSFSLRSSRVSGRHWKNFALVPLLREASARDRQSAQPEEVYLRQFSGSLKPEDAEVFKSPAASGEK

Compound: C/C=C/C=C/C=C\CC/C=C/C(=O)NCC(C)(C)O [Hydroxyl-α-sanshool]
- agonist activity at TRPV1 [1]: agonist
- agonist activity at TRPA1 (TRP ankyrin 1/TRPA1): agonist

Compound: CC(/C=C/C=C(C)/C=C/C(=O)O)=C\C=C\C=C(C)\C=C\C=C(C)\C=C\C(=O)O (stereo in doubt) [norbixin, (2E,4E,6E,8E,10E,12E,14E,16E,18E)-4,8,13,17-tetramethylicosa-2,4,6,8,10,12,14,16,18-nonaenedioic acid]
- solubility in water: water soluble

Compound: COC(=O)/C=C/C(C)=C\C=C\C(C)=C\C=C\C=C(C)\C=C\C=C(C)\C=C\C(=O)O [bixin, (2E,4E,6E,8E,10E,12E,14E,16Z,18E)-20-methoxy-4,8,13,17-tetramethyl-20-oxoicosa-2,4,6,8,10,12,14,16,18-nonaenoic acid]
- solubility in water: insoluble in water
- chemical stability [2]: chemically unstable when isolated

Compound: C=CC(C)(O)CCC=C(C)C (stereo not shown) [Linalool]
- agonist activity at TRPM8 (TRP melastatin 8/TRPM8): weak agonist
- stimulation of TRPA1-containing neurons (TRPA1-containing neurons): shown to stimulate
